For data set [1], the system named is A549 cells. Kind of data set: Inhibition of cell growth in tumor cells, MTT assay, A549. It is filed as cell-based. Particulars: Homo sapiens, 72 h compound exposure. How it is done: (§1) Inhibition of cell growth by compounds was measured using MTT assay (Mosmann, T., Journal of Immunological Methods, 1983, 65, 55-63). Tumor cell lines were purchased from ATCC (American Type Culture Collection, Manassas, Va.). All cell lines were maintained in RPMI 1640 (Hyclone) supplemented with 10% fetal bovine serum (FBS, Hyclone), glutamine (2 mM, Hyclone), and antibiotics (penicillin 100 U/mL and streptomycin 50 μg/mL) at 37° C. in a humidified atmosphere of 5% CO2 in air. Taxol (positive control, Sigma) and compounds were dissolved in DMSO (Sigma), and the final concentration of DMSO in the medium was 1%. Tumor cells were plated in 96-well plates at densities from 4000 cells/well of a 96-well plate and allowed to adhere/grow for 24 h. They were then treated with various concentrations of drug for 72 h. 3-(4,5-Dimethylthiazol-2-yl)-2,5-diphenyltetrazolium bromide (MTT, Sigma) was used to determine the number of viable cells at the time of compound addition and the number of cells remaining after 72 h compound exposure. The number of cells remaining after 72 h was compared to the number of viable cells at the time of compound addition by measuring the absorbance at 570 nm, allowing for the calculation of growth inhibition.
(§2) All concentrations of compounds were tested in triplicate and controls were averaged over 4 wells. IC50 was calculated by plotting the concentration of compound vs the percentage of inhibition in treated wells using GraphPad Prism 5.
Background: Tetrazolium dyes change colour on reduction, which living cells bring about.

Data set [2] can be described thus: Measurement of equilibrium solubility in aqueous buffer (HPLC UV). It is filed as physicochemical. To be noted: aqueous NaOAc/AcOH buffer, thermodynamic from solid, NaOAc/AcOH buffer (100 mM, pH 5.0), shaken at rt for 24 h. How it is done:
The equilibrium solubility of compounds is measured in aqueous buffer. Excess amount of solid compound is added into buffer solution and the sample is briefly sonicated and then shaken at rt for 24 h. The sample is filtered and the concentration is analyzed by HPLC UV. A standard solution at 0.2 mg/mL was prepared in methanol or acetonitrile for each compound and used as an external standard for quantification. Data for bufalin and four of the compounds specifically described herein in NaOAc/AcOH buffer (100 mM, pH 5.0) is shown below.

The subject of data set [3] is Bcap-37 cells. Kind of data set: Inhibition of cell growth in tumor cells, MTT assay, Bcap-37. Particulars: Homo sapiens, Bcap37, 72 h compound exposure. In kind it is cell-based. How it is done: as §1, §2
In data set [4] the test system is tumor xenografts. Kind of data set: Inhibition of tumor growth in xenograft model. In kind it is in vivo, BALB/c female nude mice. Particulars: 10 mg/kg, Q4D × 3, i.v. How it is done:
Cells were implanted in BALB/c female nude mice and grown as tumor xenografts. When tumors achieved 150-200 mm^3, mice were assigned into treatment and control groups using randomized block design based upon their tumor volumes. Each group contained 10 tumor-bearing mice. Tumors were measured twice weekly in two dimensions using a caliper, and the tumor volume was calculated from two-dimensional measurements using the equation V=0.5×a×b^2 where a and b are the long and short diameters of the tumor, respectively. The tumor volume was then used for calculations of T/C values. The T/C value was an indication of antitumor effectiveness; T and C were the mean volume of the treated and control groups, respectively, on a given day.

pIC50: −log10 of the molar value. Values after ≈ are worked out from the molar mass of the structure shown.

As usually defined, the pIC50 is the negative decadic logarithm of the IC50, by convention in mol/L. Low readings indicate a large IC50, high ones a small IC50. By solubility is commonly meant how much of the substance goes into solution per volume. Lower therefore signals a poorly soluble substance. As usually defined, the T/C is the result in the treated group divided by that in the control group, in per cent.

`C[C@]12CC[C@H](OC(=O)NCCCC(=O)O)C[C@H]1CC[C@@H]1[C@@H]2CC[C@]2(C)[C@@H](c3ccc(=O)oc3)CC[C@]12O` [4-(((((3S,5R,8R,9S,10S,13R,14S,17R)-14-hydroxy-10,13-dimethyl-17-(2-oxo-2H-pyran-5-yl)hexadecahydro-1H-cyclopenta[a]phenanthren-3-yl)oxy)carbonyl)amino)butanoic Acid] gave a pIC50 in data set [1] of 7.22.

In data set [2], `C[C@]12CC[C@H](OC(=O)OCCN3CCCC3)C[C@H]1CC[C@@H]1[C@@H]2CC[C@]2(C)[C@@H](c3ccc(=O)oc3)CC[C@]12O` [(3S,5R,8R,9S,10S,13R,14S,17R)-14-hydroxy-10,13-dimethyl-17-(2-oxo-2H-pyran-5-yl)hexadecahydro-1H-cyclopenta[a]phenanthren-3-yl (2-(pyrrolidin-1-yl)ethyl) carbonate] came in with a solubility at 24 h of 710 µg/mL (≈ 1350 µM). In data set [3], this molecule had a pIC50 of 7.97.

`C[C@]12CC[C@H](OC(=O)NCCN3CCCC3)C[C@H]1CC[C@@H]1[C@@H]2CC[C@]2(C)[C@@H](c3ccc(=O)oc3)CC[C@]12O` [(3S,5R,8R,9S,10S,13R,14S,17R)-14-hydroxy-10,13-dimethyl-17-(2-oxo-2H-pyran-5-yl)hexadecahydro-1H-cyclopenta[a]phenanthren-3-yl (2-(pyrrolidin-1-yl)ethyl)carbamate] yielded a solubility at 24 h in data set [2] of 1040 µg/mL (≈ 1970 µM). For the same molecule, the pIC50 is 8.55 in data set [1] and 8.28 in data set [3].

As for `C[C@]12CC[C@H](OC(=O)OCCN3CCOCC3)C[C@H]1CC[C@@H]1[C@@H]2CC[C@]2(C)[C@@H](c3ccc(=O)oc3)CC[C@]12O` [(3S,5R,8R,9S,10S,13R,14S,17R)-14-hydroxy-10,13-dimethyl-17-(2-oxo-2H-pyran-5-yl)hexadecahydro-1H-cyclopenta[a]phenanthren-3-yl (2-morpholinoethyl) carbonate], the negative logarithm of the IC50 (pIC50) in data set [1] was 7.91.

In data set [1], `C[C@]12CC[C@H](OC(=O)NCCN3CCOCC3)C[C@H]1CC[C@@H]1[C@@H]2CC[C@]2(C)[C@@H](c3ccc(=O)oc3)CC[C@]12O` [(3S,5R,8R,9S,10S,13R,14S,17R)-14-hydroxy-10,13-dimethyl-17-(2-oxo-2H-pyran-5-yl)hexadecahydro-1H-cyclopenta[a]phenanthren-3-yl (2-morpholinoethyl)carbamate] showed a negative logarithm of the IC50 (pIC50) of 8.13.

As for `C[C@]12CC[C@H](OC(=O)N3CCOCC3)C[C@H]1CC[C@@H]1[C@@H]2CC[C@]2(C)[C@@H](c3ccc(=O)oc3)CC[C@]12O` [(3S,5R,8R,9S,10S,13R,14S,17R)-14-hydroxy-10,13-dimethyl-17-(2-oxo-2H-pyran-5-yl)hexadecahydro-1H-cyclopenta[a]phenanthren-3-yl morpholine-4-carboxylate], the pIC50 in data set [3] is 6.65.

The molecule `C[C@]12CC[C@H](OC(=O)N3CCNCC3)C[C@H]1CC[C@@H]1[C@@H]2CC[C@]2(C)[C@@H](c3ccc(=O)oc3)CC[C@]12O` [(3S,5R,8R,9S,10S,13R,14S,17R)-14-hydroxy-10,13-dimethyl-17-(2-oxo-2H-pyran-5-yl)hexadecahydro-1H-cyclopenta[a]phenanthren-3-yl piperazine-1-carboxylate] displayed a solubility at 24 h in data set [2] of 840 µg/mL (≈ 1680 µM). In data set [1], this molecule showed a negative logarithm of the IC50 (pIC50) of 8.74.

In data set [1], `CC(C)[C@@H](N)C(=O)O[C@H]1CC[C@@]2(C)[C@H](CC[C@@H]3[C@@H]2CC[C@]2(C)[C@@H](c4ccc(=O)oc4)CC[C@]32O)C1` [(R)-(3S,5R,8R,9S,10S,13R,14S,17R)-14-hydroxy-10,13-dimethyl-17-(2-oxo-2H-pyran-5-yl)hexadecahydro-1H-cyclopenta[a]phenanthren-3-yl 2-amino-3-methylbutanoate] had a pIC50 of 6.83.

In turn, `CC(C)C[C@@H](N)C(=O)O[C@H]1CC[C@@]2(C)[C@H](CC[C@@H]3[C@@H]2CC[C@]2(C)[C@@H](c4ccc(=O)oc4)CC[C@]32O)C1` [(R)-(3S,5R,8R,9S,10S,13R,14S,17R)-14-hydroxy-10,13-dimethyl-17-(2-oxo-2H-pyran-5-yl)hexadecahydro-1H-cyclopenta[a]phenanthren-3-yl 2-amino-4-methylpentanoate] had a pIC50 in data set [1] of 7.23.

The molecule `C[C@@H](N)C(=O)O[C@H]1CC[C@@]2(C)[C@H](CC[C@@H]3[C@@H]2CC[C@]2(C)[C@@H](c4ccc(=O)oc4)CC[C@]32O)C1` [(R)-(3S,5R,8R,9S,10S,13R,14S,17R)-14-hydroxy-10,13-dimethyl-17-(2-oxo-2H-pyran-5-yl)hexadecahydro-1H-cyclopenta[a]phenanthren-3-yl 2-aminopropanoate] had a pIC50 in data set [1] of 8.47.

Molecule `CC(C)[C@H](N)C(=O)O[C@H]1CC[C@@]2(C)[C@H](CC[C@@H]3[C@@H]2CC[C@]2(C)[C@@H](c4ccc(=O)oc4)CC[C@]32O)C1` [(S)-(3S,5R,8R,9S,10S,13R,14S,17R)-14-hydroxy-10,13-dimethyl-17-(2-oxo-2H-pyran-5-yl)hexadecahydro-1H-cyclopenta[a]phenanthren-3-yl 2-amino-3-methylbutanoate] came in with a solubility at 24 h in data set [2] of 120 µg/mL (≈ 247 µM). The same molecule had a pIC50 in data set [3] of 7.31.

In data set [1], `CC(C)C[C@H](N)C(=O)O[C@H]1CC[C@@]2(C)[C@H](CC[C@@H]3[C@@H]2CC[C@]2(C)[C@@H](c4ccc(=O)oc4)CC[C@]32O)C1` [(S)-(3S,5R,8R,9S,10S,13R,14S,17R)-14-hydroxy-10,13-dimethyl-17-(2-oxo-2H-pyran-5-yl)hexadecahydro-1H-cyclopenta[a]phenanthren-3-yl 2-amino-4-methylpentanoate] showed a pIC50 of 7.82.

For the molecule `C[C@H](N)C(=O)O[C@H]1CC[C@@]2(C)[C@H](CC[C@@H]3[C@@H]2CC[C@]2(C)[C@@H](c4ccc(=O)oc4)CC[C@]32O)C1` [(S)-(3S,5R,8R,9S,10S,13R,14S,17R)-14-hydroxy-10,13-dimethyl-17-(2-oxo-2H-pyran-5-yl)hexadecahydro-1H-cyclopenta[a]phenanthren-3-yl 2-aminopropanoate], the pIC50 in data set [3] was 7.80.

Molecule `C[C@]12CCC(O)C[C@H]1CC[C@@H]1[C@@H]2CC[C@]2(C)[C@@H](c3ccc(=O)oc3)CC[C@]12O` (some centres unmarked) [Bufalin, reference compound] returned a solubility at 24 h in data set [2] of 41 µg/mL (≈ 106 µM). The negative-log IC50 (pIC50) in data set [1] is 8.36; in data set [3], 7.85.

`CC(=O)O[C@H]1C(=O)[C@@]2(C)[C@H]([C@H](OC(=O)c3ccccc3)[C@]3(O)C[C@H](OC(=O)[C@H](O)[C@@H](NC(=O)c4ccccc4)c4ccccc4)C(C)=C1C3(C)C)[C@]1(OC(C)=O)CO[C@@H]1C[C@@H]2O` [Paclitaxel]: the T/C in data set [4] (mean tumor volume treated/control) was found to be 74.6%. Also, the “Tumor Volume Post-treatment” value in data set [4] (nude mouse xenograft) turned out to be 391 ± 43 mm^3.

The record behind these values is US10179141B2, “Certain chemical entities, compositions, and methods” (Suzhou NeuPharma Co., Ltd., priority 2010, dated 2019).
